These results are taken from ChEMBL document CHEMBL1158885, “A new sesquiterpenoid quinone and other related compounds from the Okinawan marine sponge Dactylospongia elegans” (J Nat Prod, 2003).

Structures are written as SMILES.

In this assay the test system is HeLa. In words: Cytotoxicity against human HeLa cells. The format is functional, cell-based.

The term IC50 denotes the midpoint of a concentration-inhibition curve. Consider `C=C1CCC[C@H]2[C@]3(C)OC4=C(C[C@]3(C)CC[C@]12C)C(=O)C(OC)=CC4=O` [NEODACTYLOQUINONE], for which the IC50 was 86 µM. This counts as double-digit micromolar.
